Paper PMC6112376, “Comprehensive Analyses and Prioritization of Tox21 10K Chemicals Affecting Mitochondrial Function by in-Depth Mechanistic Studies” (Environmental Health Perspectives, 2018)
Read-outs that look alike come from different tables or passages of the source.

Experiments:
rat primary hepatocytes [1] = tested on: rat primary hepatocytes
[2] = tested on: Caenorhabditis elegans (Bristol N2); test: C. elegans larval development and growth assay
[3] = tested on: isolated rat liver mitochondria; test: Oxygen consumption, Clark-type oxygen electrode; type: biochemical
HepG2 cells [4] = test: cells; conditions: Homo sapiens
[5] = tested on: Nrf2/ARE (ARE-bla HepG2 cells); test: ARE β-lactamase reporter gene assay; type: cell-based, human
[6] = tested on: Caenorhabditis elegans strain PE255; test: In vivo C. elegans ATP status assay
HepG2 cells [7] = test: ROS-Glo hydrogen peroxide (ROS) assay; type: cell-based, human; conditions: for EC50: read-out: ROS (HepG2) EC50
rat primary hepatocytes [8] = test: MMP assay in rat primary hepatocytes
[9] = tested on: Caenorhabditis elegans strain PE255; conditions: in vivo
[10] = tested on: HeLa cells expressing YFP-Parkin; test: Parkin translocation assay; type: cell-based, human
HepG2 cells [11] = test: Oxygen consumption, Seahorse XF24 analyzer; type: cell-based, human
HepG2 cells [12] = test: Intracellular ATP content (cell viability) assay; type: cell-based, human
[13] = tested on: Caenorhabditis elegans (Bristol N2); conditions: in vivo
HepG2 cells [14] = conditions: read-out: MMP assays IC50 (µM) qHTS-HepG2; cited from earlier work
[15] = tested on: p53 (p53-bla HCT-116 cells); test: p53 β-lactamase reporter gene assay; type: cell-based, human
hNSC = test: MMP assay in human neural stem cells (hNSC); type: cell-based
HepG2 cells [16] = tested on: HepG2 cells

## CCOCn1c(-c2ccc(Cl)cc2)c(C#N)c(Br)c1C(F)(F)F [Chlorfenapyr]
Rat primary hepatocytes [1]
  MMP assays efficacy (%) Rat Hepatocytes: -109±23%
  Rat hepatocytes (efficacy) (MMP): 0.34±0.11 ( −90.8±10.1 ) %
[2]; 0.5 µM
  larval growth effect at 0.5μM: severe larval growth arrest
[2]; Caenorhabditis elegans, read-out: LEC EXT: lowest effect concentration for extinction, a measure of nematode size
  minimal effective concentration: 0.05 µM
[3]
  Potential Mechanism: Uncoupler at low concentrations (0.16-20 µM), and Uncoupler + inhibitor at high concentration (100 µM)
  effect on mitochondrial respiration (in words): effects similar to those of FCCP
  uncoupler effect at (concentration) in the oxygen consumption assay: 0.16 µM
[3]; 0.032 µM
  I-ADP, % of control (O2 consumption rate): 99 (43.1) % of control
  I-sub, % of control (O2 consumption rate): 116 (15.2) % of control
  II-ADP, % of control (O2 consumption rate): 99 (67.2) % of control
  II-sub, % of control (O2 consumption rate): 108 (22.5) % of control
[3]; 0.16 µM
  I-ADP, % of control (O2 consumption rate): 96 (41.8) % of control
  I-sub, % of control (O2 consumption rate): 131 (17.1) % of control
  II-ADP, % of control (O2 consumption rate): 112 (75.7) % of control
  II-sub, % of control (O2 consumption rate): 119 (24.9) % of control
[3]; 0.8 µM
  I-ADP, % of control (O2 consumption rate): 120 (52.1) % of control
  I-sub, % of control (O2 consumption rate): 242 (31.7) % of control
  II-ADP, % of control (O2 consumption rate): 106 (71.8) % of control
  II-sub, % of control (O2 consumption rate): 180 (37.6) % of control
[3]; 4 µM
  I-ADP, % of control (O2 consumption rate): 177 (76.8) % of control
  I-sub, % of control (O2 consumption rate): 544 (71.3) % of control
  II-ADP, % of control (O2 consumption rate): 124 (84.2) % of control
  II-sub, % of control (O2 consumption rate): 359 (75.1) % of control
[3]; 20 µM
  I-ADP, % of control (O2 consumption rate): 91 (39.4) % of control
  I-sub, % of control (O2 consumption rate): 324 (42.4) % of control
  II-ADP, % of control (O2 consumption rate): 80 (54.0) % of control
  II-sub, % of control (O2 consumption rate): 281 (58.7) % of control
[3]; 100 µM
  I-ADP, % of control (O2 consumption rate): 54 (28.6) % of control
  I-sub, % of control (O2 consumption rate): 277 (37.3) % of control
  II-ADP, % of control (O2 consumption rate): 35 (23.6) % of control
  II-sub, % of control (O2 consumption rate): 139 (30.2) % of control
HepG2 cells [4]; HepG2, 1 h, read-out: HepG2 IC50 Galactose (MMP)
  IC50: 1850 nM
HepG2 cells [4]; HepG2, 1 h, read-out: HepG2 IC50 Glucose (MMP)
  IC50: 1670 nM
HepG2 cells [4]; HepG2, read-out: IC50 in HepG2 cells (MMP, tier-one retest)
  IC50: 40 nM
HepG2 cells [4]; HepG2, read-out: MMP assays efficacy (%) HepG2
  Emax: 109%
[5]; 16 h incubation, mean±SD of three experiments
  ARE (HepG2) EC50: Inactive
[6]; Caenorhabditis elegans, read-out: LEC LUM: lowest effect concentration for luminescence, a measure of nematode ATP content
  minimal effective concentration: 0.25 µM
HepG2 cells [7]; Homo sapiens, HepG2, 2 h
  EC50: 1930 nM
Rat primary hepatocytes [8]; Rattus norvegicus, Hepatocyte, 1 h, read-out: IC50 in rat primary hepatocytes (MMP, tier-one retest)
  IC50: 70 nM
Rat primary hepatocytes [8]; Rattus norvegicus, Hepatocyte, 1 h, read-out: Rat hepatocytes IC50 (MMP)
  IC50: 340 nM
[9]; PE255 [sur-5::luc+::gfp, rol-6(su1006)], Caenorhabditis elegans
  inhibitory effect at (concentration) on ATP content in the C. elegans assay: 0.25 µM
[10]
  Parkin recruitment: Active
[10]; 3 h
  Parkin translocation into mitochondria (in words): patterns similar to antimycin A and FCCP
HepG2 cells [11]
  effect on oxygen consumption rate, Seahorse (in words): effects similar to that of FCCP
HepG2 cells [12]; Homo sapiens, HepG2, 40 h, read-out: ATP (HepG2, galactose) IC50
  IC50: 7010 nM
HepG2 cells [12]; Homo sapiens, HepG2, 40 h, read-out: ATP (HepG2, glucose) IC50
  IC50: 6410 nM
[13]; Bristol N2 (wild type), Caenorhabditis elegans
  inhibitory effect at (concentration) on larval growth in the C. elegans assay: 0.05 µM
HepG2 cells [14]
  IC50: 0.07 ± 0.04 µM

## N#CC(C#N)=NNc1ccc(OC(F)(F)F)cc1 [FCCP, carbonyl cyamide 4-(trifluoromethoxy)phenylhydrazone, reference compound]
Rat primary hepatocytes [1]
  Rat hepatocytes (efficacy) (MMP): 0.35±0.06 ( −95.4±4.65 ) %
[2]; in vivo
  LEC EXT: lowest effect concentration for extinction, a measure of nematode size: 2.5 µM
[15]
  p53 (HCT-116) EC50: Inactive
[3]
  Potential Mechanism: Uncoupler at lower concentrations (0.032-0.16 µM), and Uncoupler + inhibitor at high concentrations (0.8 - 100 µM)
  concentration at which RCR began to decrease: 32 nM
  concentration at which RCR reached unity (complete uncoupling): 4 µM
  glutamate/malate-driven state 4 respiration, maximal increase over the baseline level: approximately 4 fold
  succinate-driven state 4 respiration, maximal response over the baseline level: 2.6 fold
  uncoupler effect at (concentration) in the oxygen consumption assay: 0.032 µM
[3]; 0.0064 µM
  I-ADP, % of control (O2 consumption rate): 94 (46.6) % of control
  I-sub, % of control (O2 consumption rate): 108 (14.9) % of control
  II-ADP, % of control (O2 consumption rate): 96 (85.4) % of control
  II-sub, % of control (O2 consumption rate): 90 (24.4) % of control
[3]; 0.032 µM
  I-ADP, % of control (O2 consumption rate): 100 (49.4) % of control
  I-sub, % of control (O2 consumption rate): 131 (18.2) % of control
  II-ADP, % of control (O2 consumption rate): 96 (85.4) % of control
  II-sub, % of control (O2 consumption rate): 126 (34.2) % of control
[3]; 0.16 µM
  I-ADP, % of control (O2 consumption rate): 115 (56.7) % of control
  I-sub, % of control (O2 consumption rate): 251 (34.8) % of control
  II-ADP, % of control (O2 consumption rate): 97 (86.6) % of control
  II-sub, % of control (O2 consumption rate): 260 (70.2) % of control
[3]; 0.8 µM
  I-ADP, % of control (O2 consumption rate): 125 (61.6) % of control
  I-sub, % of control (O2 consumption rate): 386 (53.5) % of control
  II-ADP, % of control (O2 consumption rate): 67 (59.7) % of control
  II-sub, % of control (O2 consumption rate): 247 (66.9) % of control
[3]; 4 µM
  I-ADP, % of control (O2 consumption rate): 74 (36.5) % of control
  I-sub, % of control (O2 consumption rate): 264 (36.5) % of control
  II-ADP, % of control (O2 consumption rate): 44 (39.6) % of control
  II-sub, % of control (O2 consumption rate): 189 (51.0) % of control
[3]; 20 µM
  I-ADP, % of control (O2 consumption rate): 73 (36.0) % of control
  I-sub, % of control (O2 consumption rate): 278 (38.5) % of control
  II-ADP, % of control (O2 consumption rate): 39 (34.6) % of control
  II-sub, % of control (O2 consumption rate): 165 (44.6) % of control
[3]; 100 µM
  I-ADP, % of control (O2 consumption rate): 86 (39.1) % of control
  I-sub, % of control (O2 consumption rate): 263 (40.0) % of control
  II-ADP, % of control (O2 consumption rate): 38 (27.2) % of control
  II-sub, % of control (O2 consumption rate): 98 (30.8) % of control
hNSC
  hNSC (efficacy) (MMP): 0.27±0.08 ( −94.2±2.36 ) %
hNSC; read-out: hNSC IC50 (MMP)
  IC50: 270 nM
[5]
  ARE (HepG2) EC50: Inactive
[6]; in vivo
  LEC LUM: lowest effect concentration for luminescence, a measure of nematode ATP content: 5 µM
HepG2 cells [7]
  ROS (HepG2) (efficacy): 2.49±0.45 ( 35.9±5.66 ) %
  EC50: 2490 nM
Rat primary hepatocytes [8]; read-out: Rat hepatocytes IC50 (MMP)
  IC50: 350 nM
[9]
  LEC (lowest effect concentration), ATP assay: < 10 µM
[10]
  Parkin recruitment: Active
  Parkin translocation into mitochondria (in words): significantly increased Parkin translocation into mitochondria
HepG2 cells [11]
  Activity in oxygen consumption: Uncoupler+inhibitor
HepG2 cells [16]
  HepG2 (efficacy) Galactose (MMP): 1.12±0.33 ( −94.6±1.13 ) %
  HepG2 (efficacy) Glucose (MMP): 1.05±0.38 ( −95.8±2.94 ) %
HepG2 cells [16]; read-out: HepG2 IC50 Galactose (MMP)
  IC50: 1120 nM
HepG2 cells [16]; read-out: HepG2 IC50 Glucose (MMP)
  IC50: 1050 nM
HepG2 cells [12]
  ATP (HepG2, galactose) (efficacy): 4.25±0.97 ( −91.9±3.75 ) %
  ATP (HepG2, glucose) (efficacy): 2.90±0.72 ( −90.1±9.46 ) %
HepG2 cells [12]; read-out: ATP (HepG2, galactose) IC50
  IC50: 4250 nM
HepG2 cells [12]; read-out: ATP (HepG2, glucose) IC50
  IC50: 2900 nM
[13]
  LEC (lowest effect concentration), larval growth assay: < 10 µM
